What was measured:
Assay type in all cases: biochemical
human factor XIIa = molecular target: T1, human factor XIIa (Homo sapiens, UniProt P00748); assay: Inhibitory constants for factor XIIa (substrate H-D-HHT-Gly-Arg-pNA, Chromozym XII); settings: read-out: Ki F XIIa
T1 construct: purchased Haemochrom Diagnostica GmbH, Essen, Germany
Procedure: (§1) The inhibitory effect for the individual enzymes was determined in analogy with a method which has already been described (Stürzebecher et al., J. Med. Chem. 40, 3091-3099, 1997).
(§2) After 3 min, the reaction was terminated by adding 25 μl of acetic acid (50%) and the absorption at […] was determined using a Microplate Reader (Labsystems iEMS Reader MF). The Ki values were determined, in accordance with Dixon (Biochem. J. 55, 170-171, 1953), by means of linear regression and using a computer program. The Ki values are the mean of at least three determinations.
(§3) The inhibition of factor XIa and factor XIIa was determined in an analogous manner. When determining the inhibitory constants for human factor XIa (Haemochrom Diagnostica GmbH, Essen, Germany), H-D-Lys(Z)-Pro-Arg-pNA (Chromozym PCa, Roche Diagnostics GmbH, Mannheim, Germany) was used as the substrate.
H-D-HHT-Gly-Arg-pNA (Chromozym XII, Roche Diagnostics GmbH, Mannheim, Germany) was used as the substrate for measuring the inhibitory constants of human factor XIIa (Haemochrom Diagnostica GmbH, Essen, Germany).

plasma kallikrein (PK) = plasma kallikrein (PK) (Homo sapiens, UniProt P03952); assay: Determining the inhibitory constants: inhibition of PK (substrate Bzl-Pro-Phe-Arg-pNA); settings: Tris buffer pH 8.0, 25° C.; mean of at least three determinations
Sequence of plasma kallikrein (PK) (P03952 391-638 limits assumed, species assumed): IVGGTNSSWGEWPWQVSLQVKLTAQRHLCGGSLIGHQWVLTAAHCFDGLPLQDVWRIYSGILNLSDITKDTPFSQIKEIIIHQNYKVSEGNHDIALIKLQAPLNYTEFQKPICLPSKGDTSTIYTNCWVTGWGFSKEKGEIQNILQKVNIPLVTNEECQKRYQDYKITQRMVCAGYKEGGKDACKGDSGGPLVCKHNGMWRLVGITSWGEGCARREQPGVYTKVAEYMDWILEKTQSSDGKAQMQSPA
Sequence of plasma kallikrein (PK) (P03952 20-390 partner limits assumed, species assumed): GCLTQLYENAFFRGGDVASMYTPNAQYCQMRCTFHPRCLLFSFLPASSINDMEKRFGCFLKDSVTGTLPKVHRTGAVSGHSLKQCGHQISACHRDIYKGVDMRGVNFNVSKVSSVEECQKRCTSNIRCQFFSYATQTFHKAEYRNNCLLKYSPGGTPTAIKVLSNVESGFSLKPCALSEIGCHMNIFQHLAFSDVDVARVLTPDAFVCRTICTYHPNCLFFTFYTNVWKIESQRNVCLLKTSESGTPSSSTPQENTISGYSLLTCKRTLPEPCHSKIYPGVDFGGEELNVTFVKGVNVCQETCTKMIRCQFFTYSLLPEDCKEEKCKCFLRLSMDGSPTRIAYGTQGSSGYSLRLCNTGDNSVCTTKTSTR
Procedure: as §1, §2

thrombin = thrombin (UniProt P00735); assay: Inhibitory constants for thrombin; settings: read-out: Ki Thrombin
human factor XIa = molecular target: T2, human factor XIa (Homo sapiens, UniProt P03951); assay: Inhibitory constants for factor XIa (substrate H-D-Lys(Z)-Pro-Arg-pNA, Chromozym PCa); settings: read-out: Ki F XIa
T2 construct: purchased Haemochrom Diagnostica GmbH, Essen, Germany
T2 sequence (P03951 388-625 limits assumed): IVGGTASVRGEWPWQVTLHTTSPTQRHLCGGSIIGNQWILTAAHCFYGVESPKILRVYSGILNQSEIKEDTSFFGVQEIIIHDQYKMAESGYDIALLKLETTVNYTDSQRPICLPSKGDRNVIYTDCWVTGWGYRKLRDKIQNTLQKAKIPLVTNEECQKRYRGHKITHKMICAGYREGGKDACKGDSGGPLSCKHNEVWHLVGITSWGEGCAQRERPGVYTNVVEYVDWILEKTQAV
T2 sequence (P03951 19-387 partner limits assumed): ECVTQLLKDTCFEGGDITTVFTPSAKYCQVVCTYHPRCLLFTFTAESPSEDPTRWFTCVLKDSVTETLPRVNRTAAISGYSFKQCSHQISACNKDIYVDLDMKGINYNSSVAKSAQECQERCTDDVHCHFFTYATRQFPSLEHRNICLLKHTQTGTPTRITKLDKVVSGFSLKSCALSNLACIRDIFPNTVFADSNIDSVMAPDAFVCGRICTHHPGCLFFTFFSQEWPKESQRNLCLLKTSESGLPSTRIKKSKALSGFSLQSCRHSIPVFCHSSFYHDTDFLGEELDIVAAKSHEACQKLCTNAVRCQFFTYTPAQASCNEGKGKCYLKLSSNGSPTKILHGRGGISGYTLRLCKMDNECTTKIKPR
Procedure: as §1, §2, §3

T1 sequence (P00748 373-615 limits assumed, other chains not shown): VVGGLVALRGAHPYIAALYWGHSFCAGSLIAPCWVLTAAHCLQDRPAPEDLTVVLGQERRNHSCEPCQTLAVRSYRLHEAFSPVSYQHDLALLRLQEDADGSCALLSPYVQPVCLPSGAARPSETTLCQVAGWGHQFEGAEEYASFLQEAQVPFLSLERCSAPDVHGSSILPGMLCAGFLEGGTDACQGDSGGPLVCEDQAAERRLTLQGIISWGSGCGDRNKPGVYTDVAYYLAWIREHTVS

Compound	Ki (human factor XIIa)	Ki (plasma kallikrein (PK))	Ki (thrombin)	Ki (human factor XIa)
CC(C)(C)OC[C@@H](NS(=O)(=O)Cc1ccccc1)C(=O)N[C@@H](CCC(N)=O)C(=O)NCc1ccc(C(=N)N)cc1 [Inhibitor 31]	6.3 µM	0.0092 µM	21 nM	0.067 µM
CC(C)(C)OC[C@@H](NS(=O)(=O)Cc1ccccc1)C(=O)N[C@@H](CCc1ccccc1)C(=O)NCc1ccc(C(=N)N)cc1 [Inhibitor 45]	1.3 µM	0.0045 µM	48 nM	0.083 µM
N=C(N)c1ccc(CNC(=O)[C@H](CO)NC(=O)[C@@H](CO)NS(=O)(=O)Cc2ccc(C(=O)O)cc2)cc1 [Inhibitor 23]	> 1000 µM	0.029 µM	120000 nM	0.17 µM
N=C(N)c1ccc(CNC(=O)[C@H](CCCCN)NC(=O)[C@@H](CC2CCCCC2)NS(=O)(=O)Cc2ccccc2)cc1 [Inhibitor 53]	0.83 µM	0.0023 µM	10 nM	0.15 µM
CC(C)(C)OC[C@@H](NS(=O)(=O)Cc1ccccc1)C(=O)N[C@@H](Cc1ccccc1)C(=O)NCc1ccc(C(=N)N)cc1 [Inhibitor 44]	4.6 µM	0.0055 µM	160 nM	0.26 µM
N=C(N)c1ccc(CNC(=O)[C@H](CCC(=O)OCc2ccccc2)NC(=O)[C@@H](CCc2ccncc2)NS(=O)(=O)Cc2ccccc2)cc1 [Inhibitor 60]	0.094 µM	0.0055 µM	170 nM	0.031 µM
C[C@H](NC(=O)[C@@H](CO)NS(=O)(=O)Cc1ccc(C(=O)O)cc1)C(=O)NCc1ccc(C(=N)N)cc1 [Inhibitor 22]	17 µM	0.016 µM	2300 nM	0.015 µM
C[C@H](NC(=O)[C@@H](COC(C)(C)C)NS(=O)(=O)Cc1ccccc1)C(=O)NCc1ccc(C(=N)N)cc1 [Inhibitor 27]	2 µM	0.061 µM	2.1 nM	0.03 µM
CC(C)(C)OC[C@@H](NS(=O)(=O)Cc1ccccc1)C(=O)N[C@@H](CO)CC(=O)NCc1ccc(C(=N)N)cc1 [Inhibitor 42]	> 1000 µM	0.21 µM	13000 nM	0.74 µM
C[C@@H](OCc1ccccc1)[C@H](NC(=O)[C@@H](COC(C)(C)C)NS(=O)(=O)Cc1ccccc1)C(=O)NCc1ccc(C(=N)N)cc1 [Inhibitor 39]	17 µM	0.044 µM	19 nM	0.4 µM
N=C(N)c1ccc(CNC(=O)[C@H](CCCCNC(=O)COCC(=O)NCCOCCOCCOCCOCCOCCOCCOCCN)NC(=O)[C@@H](CO)NS(=O)(=O)Cc2ccccc2)cc1 [Inhibitor 88]	21 µM	0.22 µM	1200 nM	0.4 µM
N=C(N)c1ccc(CNC(=O)CNC(=O)[C@@H](CC2CCCCC2)NS(=O)(=O)Cc2ccccc2)cc1 [Inhibitor 63]	0.7 µM	0.011 µM	9 nM	25 µM
COC(=O)c1ccc(CS(=O)(=O)N[C@H](CO)C(=O)N[C@@H](CO)C(=O)NCc2ccc(C(=N)N)cc2)cc1 [Inhibitor 24]	19 µM	0.16 µM	4200 nM	0.87 µM
N=C(N)c1ccc(CNC(=O)CNC(=O)[C@@H](Cc2cccc(C(=N)N)c2)NS(=O)(=O)Cc2ccccc2)cc1 [Inhibitor 77]	0.19 µM	0.082 µM	85 nM	0.25 µM
CC(C)(C)OC[C@@H](NS(=O)(=O)Cc1ccccc1)C(=O)N[C@@H](CCCCN)C(=O)NCc1ccc(C(=N)N)cc1 [Inhibitor 35]	4.4 µM	0.0036 µM	55 nM	0.51 µM
N=C(N)c1ccc(CNC(=O)[C@H](CO)NC(=O)[C@@H](CCc2ccccc2)NS(=O)(=O)Cc2ccccc2)cc1 [Inhibitor 67]	0.63 µM	0.019 µM	550 nM	3 µM
COC(=O)c1ccc(CS(=O)(=O)N[C@H](COC(C)(C)C)C(=O)N[C@@H](C)C(=O)NCc2ccc(C(=N)N)cc2)cc1 [Inhibitor 49]	4.7 µM	0.054 µM	4.3 nM	0.079 µM
CC(C)(C)OC[C@@H](NS(=O)(=O)Cc1ccc(CN)cc1)C(=O)NCC(=O)NCc1ccc(C(=N)N)cc1 [Inhibitor 50]	1.8 µM	4 µM	120 nM	2.9 µM
N=C(N)c1ccc(CNC(=O)CNC(=O)[C@@H](CO)NS(=O)(=O)Cc2ccc(CN)cc2)cc1 [Inhibitor 25]	17 µM	6.3 µM	8000 nM	6 µM
N=C(N)c1ccc(CNC(=O)[C@H](CCc2ccccc2)NC(=O)[C@@H](CO)NS(=O)(=O)Cc2ccccc2)cc1 [Inhibitor 19]	2.8 µM	0.048 µM	1200 nM	0.084 µM

Compound	Ki (human factor XIIa)	Ki (plasma kallikrein (PK))	Ki (thrombin)	Ki (human factor XIa)
CC(C)(C)OC[C@@H](NS(=O)(=O)Cc1ccccc1)C(=O)N[C@@H](COCc1ccccc1)C(=O)NCc1ccc(C(=N)N)cc1 [Inhibitor 41]	1.4 µM	0.012 µM	12 nM	0.2 µM
CC(C)(C)OC[C@@H](NS(=O)(=O)Cc1ccccc1)C(=O)N[C@@H](CCCNC(=N)N)C(=O)NCc1ccc(C(=N)N)cc1 [Inhibitor 37]	2.6 µM	0.04 µM	65 nM	0.34 µM
C[C@H](NC(=O)[C@@H](COC(C)(C)C)NS(=O)(=O)Cc1ccc(C(=O)O)cc1)C(=O)NCc1ccc(C(=N)N)cc1 [Inhibitor 48]	9.5 µM	0.0062 µM	44 nM	0.0069 µM
N=C(N)c1ccc(CNC(=O)[C@@H]2CCCN2C(=O)[C@@H](CO)NS(=O)(=O)Cc2ccc(C(=O)O)cc2)cc1 [Inhibitor 61]	29 µM	0.0091 µM	240 nM	0.014 µM
N=C(N)c1ccc(CNC(=O)C2CCCN2C(=O)C(CO)NS(=O)(=O)Cc2ccccc2)cc1 (stereo not drawn) [Inhibitor 3]	5.1 µM	0.054 µM	12 nM	0.1 µM
N=C(N)c1ccc(CNC(=O)[C@H](CCC(N)=O)NC(=O)[C@@H](CO)NS(=O)(=O)Cc2ccccc2)cc1 [Inhibitor 6]	25 µM	0.047 µM	490 nM	0.13 µM
N=C(N)c1ccc(CNC(=O)[C@H](COCc2ccccc2)NC(=O)[C@@H](CO)NS(=O)(=O)Cc2ccccc2)cc1 [Inhibitor 16]	9.8 µM	0.025 µM	480 nM	0.3 µM
CC(C)(C)OC[C@@H](NS(=O)(=O)Cc1ccccc1)C(=O)NCC(=O)NCc1ccc(C(=N)N)cc1 [Inhibitor 26]	2.6 µM	0.34 µM	220 nM	1.4 µM
N=C(N)NCC[C@@H](NS(=O)(=O)Cc1ccccc1)C(=O)NCC(=O)NCc1ccc(C(=N)N)cc1 [Inhibitor 80]	0.34 µM	0.068 µM	2100 nM	0.49 µM
C[C@H](NC(=O)[C@@H](CO)NS(=O)(=O)Cc1ccccc1)C(=O)NCc1ccc(C(=N)N)cc1 [Inhibitor 2]	9.2 µM	0.07 µM	110 nM	0.11 µM
N=C(N)c1ccc(CNC(=O)CNC(=O)[C@@H](CO)NS(=O)(=O)Cc2ccc(C(=O)O)cc2)cc1 [Inhibitor 20]	> 1000 µM	0.7 µM	170000 nM	0.6 µM
CC(C)(C)OC[C@@H](NS(=O)(=O)Cc1ccccc1)C(=O)N1CCC[C@H]1C(=O)NCc1ccc(C(=N)N)cc1 [Inhibitor 28]	0.49 µM	0.0065 µM	2 nM	0.036 µM
N=C(N)NCCC[C@H](NC(=O)[C@@H](CO)NS(=O)(=O)Cc1ccccc1)C(=O)NCc1ccc(C(=N)N)cc1 [Inhibitor 12]	16 µM	0.079 µM	4700 nM	0.77 µM
CC(C)(C)OC[C@@H](NS(=O)(=O)Cc1ccc(C#N)cc1)C(=O)N1CCC[C@H]1C(=O)NCc1ccc(C(=N)N)cc1 [Inhibitor 51]	1.6 µM	0.0094 µM	0.064 nM	0.0091 µM
N=C(N)c1ccc(CNC(=O)CNC(=O)[C@@H](CCc2ccccc2)NS(=O)(=O)Cc2ccc([N+](=O)[O-])cc2)cc1 [Inhibitor 74]	0.39 µM	0.051 µM	710 nM	0.093 µM
N=C(N)c1ccc(CNC(=O)[C@H](CN)NC(=O)[C@@H](CO)NS(=O)(=O)Cc2ccccc2)cc1 [Inhibitor 8]	15 µM	0.05 µM	650 nM	0.39 µM
N=C(N)c1ccc(CNC(=O)[C@H](CNC(=O)OCc2ccccc2)NC(=O)[C@@H](CO)NS(=O)(=O)Cc2ccccc2)cc1 [Inhibitor 9]	13 µM	0.042 µM	6900 nM	0.28 µM
CC(C)(C)OC[C@@H](NS(=O)(=O)Cc1ccccc1)C(=O)N[C@@H](CCC(=O)O)C(=O)NCc1ccc(C(=N)N)cc1 [Inhibitor 30]	19 µM	0.36 µM	2600 nM	0.079 µM
CC(C)(C)OC[C@@H](NS(=O)(=O)Cc1ccccc1)C(=O)N[C@@H](CO)C(=O)NCc1ccc(C(=N)N)cc1 [Inhibitor 40]	6 µM	0.052 µM	47 nM	0.2 µM

From US9365613B2, “Acylated 4-amidino- and -4-guanidinobenzylamines for inhibition of plasma kallikrein” (The Medicines Company (Leipzig) GmbH, priority 2003, dated 2016)
